What follows are compounds tested against MDM2 (Homo sapiens, UniProt Q00987) (assay: MDM2 binding screen of Libraries 3 and 4: displacement of fluorescent probe F-M8 at 750 nM macrocycle). Settings: Panel b, Library 3: 63 scaffolds combinatorially acylated with 15 carboxylic acids at 30 picomole scale; displacement of fluorescent peptide probe; macrocycle 750 nM.
Procedure, shortened: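 Competition with nutlin-3a was run using the fluorescein conjugate. Library members came from scaffolds reacted 6 h at room temperature with carboxylic acids (20 equiv.), HBTU and DABCO in DMSO. Quenching was overnight in Tris-Cl pH 7.4 buffer with 0.01% Tween20.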

Chain of MDM2 (Q00987 whole entry): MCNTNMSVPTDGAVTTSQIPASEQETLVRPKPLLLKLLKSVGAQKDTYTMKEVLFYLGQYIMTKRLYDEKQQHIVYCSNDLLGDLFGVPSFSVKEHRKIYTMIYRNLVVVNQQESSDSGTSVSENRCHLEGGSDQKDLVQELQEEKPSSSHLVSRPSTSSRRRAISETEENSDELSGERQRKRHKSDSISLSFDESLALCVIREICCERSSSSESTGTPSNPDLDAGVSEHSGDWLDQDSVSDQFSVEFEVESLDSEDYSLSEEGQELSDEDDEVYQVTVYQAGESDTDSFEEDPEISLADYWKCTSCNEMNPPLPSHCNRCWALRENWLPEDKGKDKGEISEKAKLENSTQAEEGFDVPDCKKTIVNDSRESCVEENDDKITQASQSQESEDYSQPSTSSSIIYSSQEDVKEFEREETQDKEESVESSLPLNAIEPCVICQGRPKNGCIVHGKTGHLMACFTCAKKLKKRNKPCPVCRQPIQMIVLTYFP

Compound	fraction of fluorescent probe displaced
O=C(NC[C@@H]1NC(=O)[C@H]2CCCN(C2)C(=O)CCSSCCNC(=O)[C@H](Cc2c[nH]c3cc(Cl)ccc23)NC1=O)c1cccc(Oc2ccccc2)c1 [X-Nip-Dap-Cl-Trp + Acid 111]	0.075
O=C(/C=C/c1ccc2ccccc2c1)NC[C@@H]1NC(=O)[C@H]2CCCN(C2)C(=O)CCSSCCNC(=O)[C@H](Cc2c[nH]c3cc(Cl)ccc23)NC1=O [X-Nip-Dap-Cl-Trp + Acid 112]	0.221
CC(Oc1cccc(Cl)c1)C(=O)NC[C@@H]1NC(=O)[C@H]2CCCN(C2)C(=O)CCSSCCNC(=O)[C@H](Cc2c[nH]c3cc(Cl)ccc23)NC1=O (stereo partly drawn) [X-Nip-Dap-Cl-Trp + Acid 113]	0.008
O=C(CCS(=O)(=O)c1ccccc1)NC[C@@H]1NC(=O)[C@H]2CCCN(C2)C(=O)CCSSCCNC(=O)[C@H](Cc2c[nH]c3cc(Cl)ccc23)NC1=O [X-Nip-Dap-Cl-Trp + Acid 114]	-0.012
O=C(NC[C@@H]1NC(=O)[C@H]2CCCN(C2)C(=O)CCSSCCNC(=O)[C@@H](Cc2c[nH]c3ccccc23)NC1=O)c1ccc(Cl)s1 [X-Nip-Dap-D-Trp + Acid 14]	-0.172
O=C(NC[C@@H]1NC(=O)[C@H]2CCCN(C2)C(=O)CCSSCCNC(=O)[C@@H](Cc2c[nH]c3ccccc23)NC1=O)c1ccc(Cl)cc1 [X-Nip-Dap-D-Trp + Acid 25]	-0.045
O=C(/C=C/c1ccncc1)NC[C@@H]1NC(=O)[C@H]2CCCN(C2)C(=O)CCSSCCNC(=O)[C@@H](Cc2c[nH]c3ccccc23)NC1=O [X-Nip-Dap-D-Trp + Acid 106]	-0.015
O=C(NC[C@@H]1NC(=O)[C@H]2CCCN(C2)C(=O)CCSSCCNC(=O)[C@@H](Cc2c[nH]c3ccccc23)NC1=O)c1ccc2ccccc2c1 [X-Nip-Dap-D-Trp + Acid 107]	0.044
O=C(/C=C/c1ccc(OCc2ccccc2)cc1)NC[C@@H]1NC(=O)[C@H]2CCCN(C2)C(=O)CCSSCCNC(=O)[C@@H](Cc2c[nH]c3ccccc23)NC1=O [X-Nip-Dap-D-Trp + Acid 110]	0.00133
O=C(/C=C/c1ccc2ccccc2c1)NC[C@@H]1NC(=O)[C@H]2CCCN(C2)C(=O)CCSSCCNC(=O)[C@@H](Cc2c[nH]c3ccccc23)NC1=O [X-Nip-Dap-D-Trp + Acid 112]	0.021
CC(Oc1cccc(Cl)c1)C(=O)NC[C@@H]1NC(=O)[C@H]2CCCN(C2)C(=O)CCSSCCNC(=O)[C@@H](Cc2c[nH]c3ccccc23)NC1=O (stereo partly drawn) [X-Nip-Dap-D-Trp + Acid 113]	-0.00533
O=C(CCS(=O)(=O)c1ccccc1)NC[C@@H]1NC(=O)[C@H]2CCCN(C2)C(=O)CCSSCCNC(=O)[C@@H](Cc2c[nH]c3ccccc23)NC1=O [X-Nip-Dap-D-Trp + Acid 114]	0.00133
Cn1cc(C[C@@H]2NC(=O)[C@H](CNC(=O)c3ccc(Cl)s3)NC(=O)[C@H]3CCCN(C3)C(=O)CCSSCCNC2=O)c2ccccc21 [X-Nip-Dap-Me-Trp + Acid 14]	0.028
Cn1cc(C[C@@H]2NC(=O)[C@H](CNC(=O)c3ccc4ccccc4c3)NC(=O)[C@H]3CCCN(C3)C(=O)CCSSCCNC2=O)c2ccccc21 [X-Nip-Dap-Me-Trp + Acid 107]	0.076
Cn1cc(C[C@@H]2NC(=O)[C@H](CNC(=O)/C=C/c3ccc(Cl)cc3)NC(=O)[C@H]3CCCN(C3)C(=O)CCSSCCNC2=O)c2ccccc21 [X-Nip-Dap-Me-Trp + Acid 108]	0.075
Cn1cc(C[C@@H]2NC(=O)[C@H](CNC(=O)/C=C/c3ccc4ccccc4c3)NC(=O)[C@H]3CCCN(C3)C(=O)CCSSCCNC2=O)c2ccccc21 [X-Nip-Dap-Me-Trp + Acid 112]	0.188

Further lines, results first:

fraction of fluorescent probe displaced	Compound
-0.00533	Cn1cc(C[C@@H]2NC(=O)[C@H](CNC(=O)CCS(=O)(=O)c3ccccc3)NC(=O)[C@H]3CCCN(C3)C(=O)CCSSCCNC2=O)c2ccccc21 [X-Nip-Dap-Me-Trp + Acid 114]
0.028	Cn1cc(C[C@@H]2NC(=O)[C@H](CNC(=O)C3COc4ccccc4O3)NC(=O)[C@H]3CCCN(C3)C(=O)CCSSCCNC2=O)c2ccccc21 (stereo partly drawn) [X-Nip-Dap-Me-Trp + Acid 115]
0.00133	CN1C(=O)[C@H](CNC(=O)c2ccc(Cl)cc2)NC(=O)[C@H]2CCCN(C2)C(=O)CCSSCCNC(=O)[C@@H]1Cc1c[nH]c2ccccc12 [X-Nip-Dap-NMe-Trp + Acid 25]
-0.021	CN1C(=O)[C@H](CNC(=O)/C=C/c2ccncc2)NC(=O)[C@H]2CCCN(C2)C(=O)CCSSCCNC(=O)[C@@H]1Cc1c[nH]c2ccccc12 [X-Nip-Dap-NMe-Trp + Acid 106]
0.031	CN1C(=O)[C@H](CNC(=O)c2ccc3ccccc3c2)NC(=O)[C@H]2CCCN(C2)C(=O)CCSSCCNC(=O)[C@@H]1Cc1c[nH]c2ccccc12 [X-Nip-Dap-NMe-Trp + Acid 107]
0.00133	CN1C(=O)[C@H](CNC(=O)/C=C/c2ccc(Cl)cc2)NC(=O)[C@H]2CCCN(C2)C(=O)CCSSCCNC(=O)[C@@H]1Cc1c[nH]c2ccccc12 [X-Nip-Dap-NMe-Trp + Acid 108]
0.015	CN1C(=O)[C@H](CNC(=O)/C=C/c2ccc(OCc3ccccc3)cc2)NC(=O)[C@H]2CCCN(C2)C(=O)CCSSCCNC(=O)[C@@H]1Cc1c[nH]c2ccccc12 [X-Nip-Dap-NMe-Trp + Acid 110]
-0.019	CN1C(=O)[C@H](CNC(=O)c2cccc(Oc3ccccc3)c2)NC(=O)[C@H]2CCCN(C2)C(=O)CCSSCCNC(=O)[C@@H]1Cc1c[nH]c2ccccc12 [X-Nip-Dap-NMe-Trp + Acid 111]
0.015	CN1C(=O)[C@H](CNC(=O)/C=C/c2ccc3ccccc3c2)NC(=O)[C@H]2CCCN(C2)C(=O)CCSSCCNC(=O)[C@@H]1Cc1c[nH]c2ccccc12 [X-Nip-Dap-NMe-Trp + Acid 112]
0.021	CN1C(=O)[C@H](CNC(=O)CCS(=O)(=O)c2ccccc2)NC(=O)[C@H]2CCCN(C2)C(=O)CCSSCCNC(=O)[C@@H]1Cc1c[nH]c2ccccc12 [X-Nip-Dap-NMe-Trp + Acid 114]
-0.012	CN1C(=O)[C@H](CNC(=O)C2COc3ccccc3O2)NC(=O)[C@H]2CCCN(C2)C(=O)CCSSCCNC(=O)[C@@H]1Cc1c[nH]c2ccccc12 (stereo partly drawn) [X-Nip-Dap-NMe-Trp + Acid 115]
0.208	O=C(NC[C@@H]1NC(=O)[C@H]2CCCN(C2)C(=O)CCSSCCNC(=O)[C@H](Cc2c[nH]c3ccccc23)NC1=O)c1ccc(Cl)s1 [X-Nip-Dap-Trp + Acid 14]
0.194	O=C(NC[C@@H]1NC(=O)[C@H]2CCCN(C2)C(=O)CCSSCCNC(=O)[C@H](Cc2c[nH]c3ccccc23)NC1=O)c1ccc(Cl)cc1 [X-Nip-Dap-Trp + Acid 25]

Same assay, conditions: Panel c, Library 4: best nine scaffolds and 15 additional carboxylic acids; displacement of fluorescent probe

Compound	fraction of fluorescent probe displaced
O=C(/C=C/c1ccc(F)cc1)NC[C@@H]1NC(=O)[C@H]2CCCN(C2)C(=O)CCSSCCNC(=O)[C@H](Cc2c[nH]c3cc(Cl)ccc23)NC1=O [X-Nip-Dap-Cl-Trp + Acid 116]	0.289
CCOc1ccc(/C=C/C(=O)NC[C@@H]2NC(=O)[C@H]3CCCN(C3)C(=O)CCSSCCNC(=O)[C@H](Cc3c[nH]c4cc(Cl)ccc34)NC2=O)cc1 [X-Nip-Dap-Cl-Trp + Acid 117]	0.207
O=C(/C=C/c1ccc(Cl)c(Cl)c1)NC[C@@H]1NC(=O)[C@H]2CCCN(C2)C(=O)CCSSCCNC(=O)[C@H](Cc2c[nH]c3cc(Cl)ccc23)NC1=O [X-Nip-Dap-Cl-Trp + Acid 119]	0.134
O=C(/C=C/c1cccc(Cl)c1)NC[C@@H]1NC(=O)[C@H]2CCCN(C2)C(=O)CCSSCCNC(=O)[C@H](Cc2c[nH]c3cc(Cl)ccc23)NC1=O [X-Nip-Dap-Cl-Trp + Acid 121]	0.207
O=C(/C=C/c1cccc(C(F)(F)F)c1)NC[C@@H]1NC(=O)[C@H]2CCCN(C2)C(=O)CCSSCCNC(=O)[C@H](Cc2c[nH]c3cc(Cl)ccc23)NC1=O [X-Nip-Dap-Cl-Trp + Acid 122]	0.166
CC(C)c1ccc(/C=C/C(=O)NC[C@@H]2NC(=O)[C@H]3CCCN(C3)C(=O)CCSSCCNC(=O)[C@H](Cc3c[nH]c4cc(Cl)ccc34)NC2=O)cc1 [X-Nip-Dap-Cl-Trp + Acid 127]	0.109
O=C(NC[C@@H]1NC(=O)[C@H]2CCCN(C2)C(=O)CCSSCCNC(=O)[C@H](Cc2c[nH]c3cc(Cl)ccc23)NC1=O)c1cnc2ccccc2n1 [X-Nip-Dap-Cl-Trp + Acid 130]	0.044

Second part, the compound after the results:

fraction of fluorescent probe displaced	Compound
0.052	Cn1cc(C[C@@H]2NC(=O)[C@H](CNC(=O)/C=C/c3ccc(F)cc3)NC(=O)[C@H]3CCCN(C3)C(=O)CCSSCCNC2=O)c2ccccc21 [X-Nip-Dap-Me-Trp + Acid 116]
0.085	Cn1cc(C[C@@H]2NC(=O)[C@H](CNC(=O)/C=C/c3ccc(Cl)c(Cl)c3)NC(=O)[C@H]3CCCN(C3)C(=O)CCSSCCNC2=O)c2ccccc21 [X-Nip-Dap-Me-Trp + Acid 119]
0.118	Cn1cc(C[C@@H]2NC(=O)[C@H](CNC(=O)/C=C/c3cccc(Cl)c3)NC(=O)[C@H]3CCCN(C3)C(=O)CCSSCCNC2=O)c2ccccc21 [X-Nip-Dap-Me-Trp + Acid 121]
0.101	Cn1cc(C[C@@H]2NC(=O)[C@H](CNC(=O)/C=C/c3cccc(C(F)(F)F)c3)NC(=O)[C@H]3CCCN(C3)C(=O)CCSSCCNC2=O)c2ccccc21 [X-Nip-Dap-Me-Trp + Acid 122]
0.028	CC(C)c1ccc(/C=C/C(=O)NC[C@@H]2NC(=O)[C@H]3CCCN(C3)C(=O)CCSSCCNC(=O)[C@H](Cc3cn(C)c4ccccc34)NC2=O)cc1 [X-Nip-Dap-Me-Trp + Acid 127]
-0.00464	Cn1cc(C[C@@H]2NC(=O)[C@H](CNC(=O)c3cnc4ccccc4n3)NC(=O)[C@H]3CCCN(C3)C(=O)CCSSCCNC2=O)c2ccccc21 [X-Nip-Dap-Me-Trp + Acid 130]
